Laboratory results from patent US5286648A, “A84575 antibiotics” (Eli Lilly and Company, priority 1991, dated 1994).
Converted amounts (≈) assume the structure as drawn. Where two headings read alike, the source gives them in different places. Where a SMILES comes first, the peptide text is derived from it. Bridges are numbered along the chain shown (N, C = ends). [ ]: non-standard residue; d: D form. The star is where a group is joined. Ileψ(thiazoline)Cys = CC[C@H](C)[C@H](N)C1=N[C@H](C(=O)*)CS1; dOrn = NCCC[C@@H](N)C(=O)O

Tests used:
culture A84575 [1] = assay: Resistance of culture A84575 to antibiotics (antibiotic sensitivity discs, ISP No. 2 agar); type: cell-based, Streptosporangium carneum; conditions: disc
Protocol: Resistance to antibiotics was measured by padding antibiotic sensitivity discs (Difco) onto the surface of seeded ISP No. 2 agar plates. Resistance was scored as (+) when no zone of inhibition was observed, and as (-) when a zone of inhibition was observed.

culture A84575 [2] = assay: as above; type: cell-based, Streptosporangium carneum; conditions: 50 μg/mL
Staphylococcus aureus = assay: In vitro antibacterial activity (Table 5), MIC; type: cell-based
[3] = system: Staphylococcus epidermidis; assay: In vitro antibacterial activity (Table 5), MIC; type: cell-based, S. epidermidis
Streptococcus A = assay: In vitro antibacterial activity (Table 5), MIC; type: cell-based; conditions: strain C203
Streptococcus pneumoniae = assay: In vitro antibacterial activity (Table 5), MIC; type: cell-based, S. pneumoniae; conditions: strain PARK
Streptococcus D = assay: In vitro antibacterial activity (Table 5), MIC; type: cell-based
Haemophilus influenzae = assay: In vitro antibacterial activity (Table 5), MIC; type: cell-based

## CCC[C@@H]1C[C@@H](C(=O)N[C@@H]([C@H]2O[C@H](SC)[C@H](O)[C@@H](O)[C@H]2O)[C@@H](C)O)N(C)C1 [lincomycin]
Culture A84575 [1]; 2 μm
  Resistance to antibiotics: resistant

## lysozyme
Culture A84575 [2]
  Sensitivity to lysozyme: sensitive

## CO[C@H]1/C=C/O[C@@]2(C)Oc3c(C)c(O)c4c(O)c(c(/C=N/N5CCN(C)CC5)c(O)c4c3C2=O)NC(=O)/C(C)=C\C=C\[C@H](C)[C@H](O)[C@@H](C)[C@@H](O)[C@@H](C)[C@H](OC(C)=O)[C@@H]1C [rifampin]
Culture A84575 [1]; 5 μm
  Resistance to antibiotics: sensitive

## CO[C@H]1C[C@H](O[C@H]2[C@H](C)[C@@H](O[C@@H]3O[C@H](C)C[C@H](N(C)C)[C@H]3O)[C@@H](C)C[C@@]3(CO3)C(=O)[C@H](C)[C@@H](O)[C@@H](C)[C@@H](C)OC(=O)[C@@H]2C)O[C@@H](C)[C@@H]1O [oleandomycin]
Culture A84575 [1]; 15 μm
  Resistance to antibiotics: sensitive

## CC1(C)S[C@@H]2[C@H](NC(=O)Cc3ccccc3)C(=O)N2[C@H]1C(=O)O [penicillin G]
Culture A84575 [1]; 10 units
  Resistance to antibiotics: resistant

## CO/N=C(\C(=O)N[C@@H]1C(=O)N2C(C(=O)O)=C(COC(C)=O)CS[C@H]12)c1csc(N)n1 [Standard]
Staphylococcus aureus
  MIC: 16 µg/mL (≈ 35.1 µM)
Staphylococcus aureus; strain U41, read-out: MIC
  MIC: 4 µg/mL (≈ 8.78 µM)
Staphylococcus aureus; strain X1.1, read-out: MIC
  MIC: 2 µg/mL (≈ 4.39 µM)
Staphylococcus aureus; strain X400, read-out: MIC
  MIC: 128 µg/mL (≈ 281 µM)
[3]; strain 222
  MIC: 2 µg/mL (≈ 4.39 µM)
[3]; strain 270
  MIC: 8 µg/mL (≈ 17.6 µM)
Streptococcus A
  MIC: 0.015 µg/mL (≈ 0.0329 µM)
Streptococcus pneumoniae
  MIC: 0.015 µg/mL (≈ 0.0329 µM)
Streptococcus D; strain 2041
  MIC: 128 µg/mL (≈ 281 µM)
Streptococcus D; strain X66
  MIC: > 128 µg/mL
Haemophilus influenzae; Haemophilus influenzae, strain C.L., sensitive strain, read-out: MIC
  MIC: 0.015 µg/mL (≈ 0.0329 µM)
Haemophilus influenzae; strain 76, resistant strain
  MIC: .015 µg/mL (≈ 0.0329 µM)

## CC[C@H](C)[C@H](N)C1=N[C@H](C(=O)N[C@@H](CC(C)C)C(=O)N[C@H](CCC(=O)O)C(=O)N[C@H](C(=O)N[C@H]2CCCCNC(=O)[C@H](CC(N)=O)NC(=O)[C@@H](CC(=O)O)NC(=O)[C@H](Cc3cnc[nH]3)NC(=O)[C@@H](Cc3ccccc3)NC(=O)[C@H]([C@@H](C)CC)NC(=O)[C@@H](CCCN)NC2=O)[C@@H](C)CC)CS1 [bacitracin] ({Ileψ(thiazoline)Cys}-L[dE]IK[dOrn]I[dF]H[dD]N; lactam 4-C)
Culture A84575 [1]; 10 units
  Resistance to antibiotics: resistant
